Results taken from patent US4368194A, “Pharmacologically active amine boranes” (The United States of America as represented by the …, priority 1981, dated 1983).
Where two headings read alike, the source gives them in different places.

Key:
[1] = system: carrageenan induced edema in mouse foot pads; test: Anti-inflammatory screen (carrageenan induced foot edema); type: in vivo, mice; settings: for Anti-inflammatory Screen: 10 mg/kg × 2 intraperitoneally, mice; for inhibition of the carrageenan induced edema in mouse foot pads: text summary of Table II
Description: CF1 male mice (about 30 g) were administered test drugs at 10 mg/kg in 0.05% polysorbate .80-water intraperitoneally 3 hr and 30 min prior to 0.05 ml of 2% carrageenan in 0.9% saline injected into the plantar surface of the right hind foot. Saline injected into the left hind foot served as a base line. After 3 hr, both feet were excised at the tibiotarsal (ankle) joint according to the modified (Roszkowski et al., J. Pharm. Exp. Ther., 179, 114 1971) method of Winter, resulting in an 87 mg net increase in the weight of the control animals' feet.

[2] = system: Sprague Dawley rats; test: Red and white blood cell counts after 3 weeks dosing; type: in vivo; settings: rat, in vivo, ip
From the text: Hematocrits were also obtained.

[3] = molecular target: T1, prostaglandin synthetase from beef seminal vesicle (Bos taurus, UniProt O62664); test: Prostaglandin synthetase activity; type: biochemical; settings: 10^-6 M; for inhibition at 1 µM: read-out: inhibition of prostaglandin synthesis; for activity at 1 µM: 1 h, read-out: Prostaglandin Synthesis
T1 construct: purchased; host or cells: beef seminal vesicle
T1 sequence (O62664 25-600): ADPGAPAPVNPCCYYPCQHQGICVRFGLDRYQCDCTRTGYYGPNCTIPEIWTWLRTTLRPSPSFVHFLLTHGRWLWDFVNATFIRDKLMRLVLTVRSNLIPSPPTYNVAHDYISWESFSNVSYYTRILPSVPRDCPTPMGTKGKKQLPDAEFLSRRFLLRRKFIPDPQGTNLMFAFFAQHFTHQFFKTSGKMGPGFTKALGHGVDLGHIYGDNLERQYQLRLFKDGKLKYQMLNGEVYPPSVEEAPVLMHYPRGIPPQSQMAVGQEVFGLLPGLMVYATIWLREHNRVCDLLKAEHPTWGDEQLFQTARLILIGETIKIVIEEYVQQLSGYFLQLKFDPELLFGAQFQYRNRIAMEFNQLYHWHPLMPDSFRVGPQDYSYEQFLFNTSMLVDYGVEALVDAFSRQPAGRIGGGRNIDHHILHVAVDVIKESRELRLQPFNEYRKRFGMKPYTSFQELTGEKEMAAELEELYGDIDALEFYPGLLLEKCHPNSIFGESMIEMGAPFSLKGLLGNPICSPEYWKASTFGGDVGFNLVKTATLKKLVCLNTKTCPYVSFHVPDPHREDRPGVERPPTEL
Description: After 1 hr at 37° C. the reaction was stopped with 1 N HCl and extracted with ethyl ether and evaporated. […] The plates were dried and developed in iodine vapor and with the use of prostaglandin standards the appropriate areas were scraped and counted for ^3 H content. Indometacin was used as a standard at 10^-4 M concentration. Test drugs were used at 10^-6 M.

[4] = system: cAMP levels in PMNs; test: Cyclic-3',5'-adenosine monophosphate levels (cAMP) in PMNs; type: cell-based
Description: (§1) Polymorphonuclear neutrophils (PMNs) were collected from the peritoneal cavity four hr after the injection of 35 ml of 0.5% oyster glycogen in isotonic saline (Orange et al., J. Exp. Med., 127, 767 1968). The PMNs were centrifuged down at 800 g for 20 min, washed, and resuspended in minumen essential medium (MEM) with 10% fetal calf serum pH 7.4.
Isolated PMNs were incubated with test drugs at 5μ moles for 1 hr at 37° C. in MEM at pH 7.4. The reaction was stopped with 6% trichloroacetic acid. The cyclic-3',5'-adenosine monophosphate levels were determined by the radioimmunoassay of Gilman, Proc. Natl. Acad. Sci. (USA), 67, 305 (1970), using 3H(G)-cyclic-3',5'-adenosine monophosphate (39.8 Cu/m mol). Results were calculated in p mole/10^7 PMNs cells.

[5] = system: CF1 male mice; test: Writhing reflex (acetic acid); type: in vivo; settings: for Writhing Reflex: 20 mg/kg intraperitoneally, mice; for inhibition of the writhing reflex: text summary of Table II
Description: CF1 male mice were administered test drugs at 20 mg/kg intraperitoneally 20 min (see Hendershat et al., J. Pharmacol Exp. Ther. 125, 237 1959) prior to the administration of 0.5 ml of 0.6% acetic acid (Vingar et al., European J. PHarmacol, 37, 23 1976). After 5 min the number of stretches, characterized by repeated contractures of the abdominal musculature accompanied by extension of the hind limbs, was counted for the next 10 min. The control mice had 78 stretch reflexes per 10 min.

[6] = system: Cathepsin; test: Lysosomal free cathepsin activity, PMNs; type: cell-based; settings: 5 μmoles; for PMNs % Free Cathespin Activity, pH5: in vitro, 60 min
Description: as §1
(§2) Acid phosphatase activity (Gianetto et al., Biochem J., 59, 433 1955) was carried out by incubating with 0.1 Mβ-glycerol phosphate in 0.1 M acetate, pH 5.0 with 5 μmoles of test drugs in 1% carboxymethylcellulose (CMC) for 20 min with liver homogenate and 60 min with resuspended PMNs. Lysosome enzymes were released by 0.02% alkyl phenoxy polyethoxy ethanol-100 to obtain the total enzymatic activity. The reaction was stopped with 10% trichloroacetic acid and the solution centrifuged. Aliquots of the supernatant were assayed for inorganic phophate content by the method of Chen et al., Anal Chem., 28, 1756 (1956). Percent free acid phosphatase was calculated. Cathepsin activity was determined in an analagous manner except the substrate used was 2% azocasein (Schleuning et al., Methods in Enzymology, XLV, 330 1976) in 0.1 M acetate buffer pH 5.0. The supernatant was assayed for acid soluble peptide fragments at 366 nm. Percent free cathepsin activity was calculated.

[7] = system: liver mitochondria; test: Oxidative phosphorylation, α-ketoglutarate as substrate; type: biochemical, rats; settings: 5 μmoles; for Oxidative Phosphorylation α Ketoglutarate State 3: ADP stimulated respiration; for Oxidative Phosphorylation α Ketoglutarate State 4: basal respiration
Description: (§3) Basal and adenosine diphosphate stimulated respiration on 10% liver homogenates was measured using succinate or αketoglutarate as substrate. See Glatt, et al., supra. The reaction vessel contained sucrose 55μ moles, KCl 22μ moles, K2 HPO4 22μ moles, test compounds at 5μ moles in 1% CMC and sodium succinate 90μ moles or αketoglutarate 60μ moles in a total volume of 1.8 ml. […] The rate of respiration was calculated at μl of O2 consumed/hr/mg wet weight of liver.

[8] = system: Acid phosphatase; test: Lysosomal free acid phosphatase activity, liver homogenate; type: biochemical, rats; settings: 5 μmoles, in vitro; 20 min
Description: (§4) Lysosomal enzymatic assays - Sprague Dawley rats (about 160 g) were sacrificed, the liver excised, and a 10% homogenate (4x) in 0.25 M sucrose and 0.001 M (ethylenedinitrilo) tetra acetic acid, ph 7.2 was prepared.
as §2

[9] = system: liver mitochondria; test: Oxidative phosphorylation, succinate as substrate; type: biochemical, rats; settings: 5 μmoles; for Oxidative Phosphorylation Succinate State 3: ADP stimulated respiration; for Oxidative Phosphorylation Succinate State 4: basal respiration
Description: as §3

[10] = system: Cathepsin; test: Lysosomal free cathepsin activity, liver homogenate; type: biochemical, rats; settings: 5 μmoles; for Liver % Free Cathepsin Activity, pH5: in vitro, 20 min
Description: as §4, §2

[11] = system: Acid phosphatase; test: Lysosomal free acid phosphatase activity, PMNs; type: cell-based; settings: 5 μmoles; for PMNs % Free Acid Phosphatase Activity, pH5: in vitro, 60 min
Description: as §1, §2

[12] = in vivo; settings: mouse

Compound | Anti-inflammatory Screen [1] [% Control] | inhibition of the carrageenan induced edema in mouse foot pads [1] | Writhing Reflex [5] [% Control] | inhibition of the writhing reflex [5] [%] | PMNs % Free Cathespin Activity, pH5 [6] [% Control] | Oxidative Phosphorylation α Ketoglutarate State 3 [7] [% Control] | Oxidative Phosphorylation α Ketoglutarate State 4 [7] [% Control] | inhibition at 1 µM [3] [%] | activity at 1 µM [3] [%] | Liver % Free Acid Phosphatase Activity, pH5 [8] [% Control] | Oxidative Phosphorylation Succinate State 3 [9] [% Control] | Oxidative Phosphorylation Succinate State 4 [9] [% Control] | Liver % Free Cathepsin Activity, pH5 [10] [% Control] | PMNs % Free Acid Phosphatase Activity, pH5 [11] [% Control] | LD50 [12] [mg/kg] | also measured
[Na{H3 N.BH2 (CN)}6 ]I [Compound X] | 57 | at least 40% | 12 | 80 | 0 ± 3 | – | – | – | – | – | – | – | – | – | – | alteration of the red blood or white blood cell count/cu mm [2]: no alteration; Prostaglandin Synthesis ([3]; 60 min, 1 µM): 42 ± 5 % Control; PMNs cAMP Level ([4]; 5 μmoles, in vitro, 60 min): 361 % Control; increase of cyclic adenosine monophosphate levels in PMNs ([4]; in vitro incubation, 5 μmoles): 261%
C[NH+](C)[BH2-]C#N [VI, (CH3)2 NH.BH2 CN] | 49 | at least 50% | 24 | 70 | 22 ± 1 | 45 ± 12 | 128 ± 25 | > 30 | 63 ± 4 | 73 ± 4 | 61 ± 5 | 126 ± 19 | 32 ± 5 | 89 ± 4 | 39 | uncoupling with α-ketoglutarate as substrate [7]: uncoupling; activity at 5 µmol ([4]; 1 h, pH 7.4, read-out: PMNs cAMP Level): 98%
[BH3-][N+](C)(C)C [Compound III, (CH3)3 N.BH3] | 65 | – | 47 | – | 18 ± 3 | 28 ± 10 | 71 ± 8 | > 30 | 61 ± 3 | 72 ± 6 | 56 ± 12 | 117 ± 11 | 17 ± 4 | 57 ± 4 | 740 | both states 3 and 4 respiration with α-ketoglutarate [7]: inhibited; activity at 5 µmol ([4]; 1 h, pH 7.4, 5 μmoles, in vitro, read-out: PMNs cAMP Level): 145%; activation at 5 µmol ([4]; 1 h, in vitro incubation, 5 μmoles, read-out: increase of cyclic adenosine monophosphate levels in PMNs): 45%; inhibition of free proteolytic cathepsin activity of liver [10]: at least 75%; inhibition of free acid phosphatase activity in PMNs [11]: 43%; inhibition of PMN cathepsin activity [6]: at least 82%
